pIC50: −log10 of the molar value.
Target: DYRK1A (HT-497, 6×His tagged rat truncated DYRK1A isoform X1 residues 1-497) (Rattus norvegicus (Rat), UniProt Q63470)
Assay: DYRK1A ELISA assay (HT-PRD phosphorylation)
Assay type: biochemical
Conditions: 100 µM ATP, 5 ng HT-497, 30 min at 30° C.
Description: Compounds of Table 1, above, were examined in vitro for activity against DYRK1A, DYRK1B, DYRK2 via an ELISA assay.
DYRK1A assay. […] After blocking, wells were washed extensively with dilution buffer before subjecting to phosphorylation. […] At the end point, wells were washed with ˜350 μl dilution buffer three times to terminate the reaction. […] Each point was run in quadruplicate with DMSO present in all assays at 0.2% final concentration. […] HT-PRD phosphorylation was subsequently determined by the sandwich antibody staining protocol, first with 100 μl mouse mAb 3D3 specific for detecting DYRK1A-phosphorylated PRD (60 min at room temperature) then with 100 μl alkaline phosphatase (AP)-linked anti-mouse secondary antibody (60 min at room temperature), followed by colorimetric reaction with 100 μl PNPP solution (PNPP substrate tablet, Thermo Fisher). […] The readings were then recorded for subsequent IC50 calculation. The DYRK1A assay protocol can also support DYRK1B and DYRK2 phosphorylation reactions in the enzyme concentration-dependent manner; therefore, the method was adapted for measuring the activity of candidate compounds against DYRK1B and DYRK2. For DYRK2, the reactions were performed as described above with 6 ng HT-DYRK2 (6×His tagged full-length human DYRK2 isoform 1). For DYRK1B, the assays were also similarly conducted but with 70 ng GST-DYRK1B (glutathione S-transferase tagged full length human DYRK1B isoform p65) and an extended kinase reaction time of 60 min.
Dilution factors for both mAb 3D3 and secondary antibody were pre-determined for each batch of antibody to ensure that neither antibody was limiting in the assay.
Data transformation, calculation, plotting, curve fitting, and IC 50 calculation were performed in KaleidaGraph (http://www.synergy.com/wordpress_650164087; Mac version 4.1). Data was corrected for background (readings from wells with only PNPP) before subsequent manipulations. […] The resulting residual activity was then plotted against its corresponding inhibitor concentrations in semi-log graph and the plot was fit to the sigmoidal equation, y=a+(b−a)/(1+(x/c)^d), for IC50 calculation.

Structure (SMILES) | pIC50
O=C(O[C@@H]1Cc2c(O)cc(O)cc2O[C@H]1c1cc(O)c(O)c(O)c1)c1cc(OC(F)F)c(O)c(O)c1F [Compound 65, (2S,3R)-5,7-dihydroxy-2-(3,4,5-trihydroxyphenyl)chroman-3-yl 5-(difluoromethoxy)-2-fluoro-3,4-dihydroxybenzoate] | < 7.00
O=C(O[C@H]1Cc2c(O)cc(O)cc2O[C@@H]1c1cc(O)c(O)c(O)c1)c1ccc(O)c(O)c1 [Compound 19, (2R,3S)-5,7-dihydroxy-2-(3,4,5-trihydroxyphenyl)chroman-3-yl 3,4-dihydroxybenzoate] | < 7.00
O=C(O[C@H]1Cc2c(O)cc(O)cc2O[C@@H]1c1cc(O)c(O)c(O)c1)c1ccncc1 [Compound 22, (2R,3S)-5,7-dihydroxy-2-(3,4,5-trihydroxyphenyl)chroman-3-yl isonicotinate] | < 6.00
O=C(O[C@@H]1Cc2c(O)cc(O)cc2O[C@@H]1c1cc(O)c(O)c(O)c1)c1ccn(O)c(=O)c1 [Compound 26, (2R,3R)-5,7-dihydroxy-2-(3,4,5-trihydroxyphenyl)chroman-3-yl 1-hydroxy-2-oxo-1,2-dihydropyridine-4-carboxylate] | < 6.00
Cc1cc(O)c(O)cc1[C@@H]1Oc2cc(O)cc(O)c2C[C@H]1OC(=O)c1cc(O)c(O)c(O)c1F [Compound 52, (2S,3R)-2-(4,5-dihydroxy-2-methylphenyl)-5,7-dihydroxychroman-3-yl 2-fluoro-3,4,5-trihydroxybenzoate] | < 7.00
CC(C)Oc1c(O)c(O)c(F)c(C(=O)O[C@@H]2Cc3c(O)cc(O)cc3O[C@H]2c2cc(O)c(O)c(O)c2)c1F [Compound 61, (2S,3R)-5,7-dihydroxy-2-(3,4,5-trihydroxyphenyl)chroman-3-yl 2,6-difluoro-3,4-dihydroxy-5-isopropoxybenzoate] | < 7.00
CCCCCC(=O)Oc1cc(O)c2c(c1)O[C@H](c1cc(O)c(O)c(O)c1)[C@H](OC(=O)c1cc(O)c(O)c(O)c1)C2 [Compound 71, (2R,3R)-7-(hexanoyloxy)-5-hydroxy-2-(3,4,5-trihydroxyphenyl)chroman-3-yl 3,4,5-trihydroxybenzoate] | < 7.00
COc1c(O)c(O)c(F)c(C(=O)O[C@@H]2Cc3c(O)cc(O)cc3O[C@H]2c2cc(O)c(O)c(O)c2)c1F [Compound 59, (2S,3R)-5,7-dihydroxy-2-(3,4,5-trihydroxyphenyl)chroman-3-yl 2,6-difluoro-3,4-dihydroxy-5-methoxybenzoate] | < 7.00
O=C(O[C@@H]1Cc2c(O)cc(O)cc2O[C@H]1c1cc(O)c(O)c(O)c1F)c1cc(O)c(O)c(O)c1 [Compound 46, (2S,3R)-2-(2-fluoro-3,4,5-trihydroxyphenyl)-5,7-dihydroxychroman-3-yl 3,4,5-trihydroxybenzoate] | > 7.00
CC(C)C(=O)Oc1c(O)cc(C(=O)O[C@@H]2Cc3c(O)cc(O)cc3O[C@@H]2c2cc(O)c(O)c(O)c2)cc1O [Compound 14, (2R,3R)-5,7-dihydroxy-2-(3,4,5-trihydroxyphenyl)chroman-3-yl 3,5-dihydroxy-4-(isobutyryloxy)benzoate] | < 7.00
COc1c(O)c(O)c(F)c(C(=O)O[C@@H]2Cc3c(O)cc(O)cc3O[C@H]2c2ccc(O)c(O)c2)c1F [Compound 64, (2S,3R)-2-(3,4-dihydroxyphenyl)-5,7-dihydroxychroman-3-yl 2,6-difluoro-3,4-dihydroxy-5-methoxybenzoate] | < 7.00
O=C(O[C@H]1Cc2c(O)cc(O)cc2O[C@@H]1c1ccc(O)c(O)c1)c1ccc(O)c(O)c1 [Compound 28, (2R,3S)-2-(3,4-dihydroxyphenyl)-5,7-dihydroxychroman-3-yl 3,4-dihydroxybenzoate] | < 6.00
COc1c(O)c(O)cc(C(=O)O[C@@H]2Cc3c(O)cc(O)cc3O[C@H]2c2cc(O)c(O)c(O)c2)c1F [Compound 50, (2S,3R)-5,7-dihydroxy-2-(3,4,5-trihydroxyphenyl)chroman-3-yl 2-fluoro-4,5-dihydroxy-3-methoxybenzoate] | < 7.00
O=C(N[C@H]1Cc2c(O)cc(O)cc2O[C@@H]1c1cc(O)c(O)c(O)c1)c1cc(O)c(O)c(O)c1 [Compound 9, N-((2R,3S)-5,7-dihydroxy-2-(3,4,5-trihydroxyphenyl)chroman-3-yl)-3,4,5-trihydroxybenzamide] | < 7.00
CS(=O)(=O)Nc1ccc(C(=O)O[C@H]2Cc3c(O)cc(O)cc3O[C@@H]2c2ccc(O)c(O)c2)cc1O [Compound 30, (2R,3S)-2-(3,4-dihydroxyphenyl)-5,7-dihydroxychroman-3-yl 3-hydroxy-4-(methylsulfonamido)benzoate] | < 6.00
O=C(O[C@@H]1Cc2c(O)cc(O)cc2O[C@H]1c1cc(O)c(O)c(O)c1)[C@H]1CC[C@H](O)CC1 [Compound 44, (2S,3R)-5,7-dihydroxy-2-(3,4,5-trihydroxyphenyl)chroman-3-yl (1r,4R)-4-hydroxycyclohexane-1-carboxylate] | < 6.00
CCNC(=O)Oc1cc(C(=O)O[C@@H]2Cc3c(O)cc(O)cc3O[C@@H]2c2cc(O)c(O)c(O)c2)cc(O)c1O [Compound 12, (2R,3R)-5,7-dihydroxy-2-(3,4,5-trihydroxyphenyl)chroman-3-yl 3-((ethylcarbamoyl)oxy)-4,5-dihydroxybenzoate] | < 7.00
O=C(O[C@@H]1Cc2c(O)cc(O)cc2O[C@H]1c1cc(O)c(O)c(O)c1)c1ccc(O)c(O)c1O [Compound 38, (2S,3R)-5,7-dihydroxy-2-(3,4,5-trihydroxyphenyl)chroman-3-yl 2,3,4-trihydroxybenzoate] | < 7.00
COc1cc([C@@H]2Oc3cc(O)cc(O)c3C[C@H]2OC(=O)c2cc(O)c(O)c(O)c2F)cc(O)c1O [Compound 49, (2S,3R)-2-(3,4-dihydroxy-5-methoxyphenyl)-5,7-dihydroxychroman-3-yl 2-fluoro-3,4,5-trihydroxybenzoate] | < 7.00
Nc1ccc(C(=O)O[C@@H]2Cc3c(O)cc(O)cc3O[C@H]2c2cc(O)c(O)c(O)c2)cc1O [Compound 35, (2S,3R)-5,7-dihydroxy-2-(3,4,5-trihydroxyphenyl)chroman-3-yl 4-amino-3-hydroxybenzoate] | < 6.00
O=C(O[C@@H]1Cc2c(O)cc(O)cc2O[C@@H]1c1cc(O)c(O)c(O)c1)c1ccc(O)c(O)c1 [Compound 11, (2R,3R)-5,7-dihydroxy-2-(3,4,5-trihydroxyphenyl)chroman-3-yl 3,4-dihydroxybenzoate] | < 7.00
CCNC(=O)Oc1cc(O)c2c(c1)O[C@H](c1cc(O)c(O)c(O)c1)[C@H](OC(=O)c1cc(O)c(O)c(O)c1)C2 [Compound 70, (2R,3R)-7-((ethylcarbamoyl)oxy)-5-hydroxy-2-(3,4,5-trihydroxyphenyl)chroman-3-yl 3,4,5-trihydroxybenzoate] | < 7.00
O=C(O[C@@H]1Cc2cccc(O)c2C[C@H]1c1cc(O)c(O)c(O)c1)c1cc(O)c(O)c(O)c1 [Compound 33, (2R,3S)-5-hydroxy-3-(3,4,5-trihydroxyphenyl)-1,2,3,4-tetrahydronaphthalen-2-yl 3,4,5-trihydroxybenzoate] | < 7.00
O=C(O[C@@H]1Cc2c(O)cc(O)cc2O[C@H]1c1cc(O)c(O)c(O)c1)c1ccc(O)c(O)c1 [Compound 34, (2S,3R)-5,7-dihydroxy-2-(3,4,5-trihydroxyphenyl)chroman-3-yl 3,4-dihydroxybenzoate] | < 7.00
